“Also recorded” adds a separate entry of the source. Like-named read-outs stand apart in the source and are kept apart here.
How the values were obtained:
[1] = design: decrease in the second phase of the formalin test: dose or concentration left out as unconfirmed; conditions: intraplantar
[2] = In vivo mouse PK; conditions: IV 0.4 mg/kg, C57BL6 mouse
[3] = tested on: MDA-MB-231 cell invasion; assay: Cancer cell invasion assay, MDA-MB-231; format: cell-based, human; conditions: 24 h
Description: A cancer cell invasion assay was developed based on literature protocols (Methods 2005, 37, 208; EMBO J 2002, 21, 6289; Cellular Signalling 2012, 24, 1276.). Membrane matrix gel (Cat #A1413201, ThermoFisher) was diluted in ice-cold, serum-free RPMI 1640 Medium (Cat #31800022, ThermoFisher) at a concentration of 0.5-0.6 mg/mL. Then it was added to the upper compartment (100 μL per cup) of millicell inserts (Cat #PI8P01250, ThermoFisher) placed in a 24-well plate (Part no. 229123, Celltreat). The plate was incubated at 37° C. for 2 h to allow the liquid gel to solidify. RPMI 1640 Medium supplemented with 10% FBS (300 μL) was added to the well of the plate (lower compartment) as attractant, then DMSO or compounds were added. Human cancer cells (1×10^5 cells in 200 μL of RPMI 1640 Medium) were added to the upper compartment of the insert, then DMSO or compounds were added. After the plate was incubated at 37° C. for 24 h, the cells were fixed on the lower side of the insert membrane with 4% formaldehyde and stained with 1% crystal violet (Part no. IS12146, Innovating Science). The invaded cells on the lower side of the filter were counted under an inverted microscope equipped with either a 4× or a 10× objective (FIG. 11). The cell numbers from 5 random views were averaged and plotted as percentage against the DMSO control (FIG. 12A).

[4] = tested on: NCI-H460; assay: Human cancer cell growth inhibition assay (ATP assay), NCI-H460; format: cell-based; conditions: Homo sapiens, NCI-H460, 96 h; 4 days; Means±SEM from three independent experiments; read-out: NCl-H460, IC50
[5] = both, mouse, in vivo, 1 min
[6] = target: T1, human TRPV3 (Homo sapiens, UniProt Q8NET8); assay: In vitro Ca2+ flux counter-screen in human TRPV3 overexpressing cells; format: cell-based; conditions: counter-screen; read-out: TRPV3 EC50
T1 construct: expressed in transfected cells; host or cells: overexpressing cells
T1 sequence (Q8NET8 1-790): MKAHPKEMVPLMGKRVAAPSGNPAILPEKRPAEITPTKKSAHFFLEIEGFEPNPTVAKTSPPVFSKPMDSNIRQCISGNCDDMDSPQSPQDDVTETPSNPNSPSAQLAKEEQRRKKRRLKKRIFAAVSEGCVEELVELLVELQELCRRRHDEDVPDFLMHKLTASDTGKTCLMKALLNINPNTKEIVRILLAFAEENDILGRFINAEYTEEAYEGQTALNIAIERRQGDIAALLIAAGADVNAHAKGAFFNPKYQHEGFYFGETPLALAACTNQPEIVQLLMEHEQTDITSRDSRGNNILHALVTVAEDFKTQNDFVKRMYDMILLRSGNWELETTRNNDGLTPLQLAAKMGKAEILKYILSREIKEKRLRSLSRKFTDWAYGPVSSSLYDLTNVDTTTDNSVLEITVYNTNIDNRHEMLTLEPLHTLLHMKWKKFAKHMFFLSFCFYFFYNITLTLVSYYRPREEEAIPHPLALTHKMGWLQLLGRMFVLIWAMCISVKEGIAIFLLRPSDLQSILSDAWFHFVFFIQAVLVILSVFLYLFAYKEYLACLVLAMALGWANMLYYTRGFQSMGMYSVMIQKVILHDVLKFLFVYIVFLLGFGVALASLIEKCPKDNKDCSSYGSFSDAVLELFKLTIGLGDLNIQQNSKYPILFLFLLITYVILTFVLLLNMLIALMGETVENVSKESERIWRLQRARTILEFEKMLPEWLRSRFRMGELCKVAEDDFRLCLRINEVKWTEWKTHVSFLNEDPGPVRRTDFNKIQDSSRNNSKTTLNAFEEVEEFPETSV

[7] = target: T2, human TRPA1 (Homo sapiens, UniProt O75762); assay: In vitro Ca2+ flux counter-screen in human TRPA1 overexpressing cells; format: cell-based; conditions: counter-screen; read-out: TRPA1 EC50
T2 construct: expressed in transfected cells; host or cells: overexpressing cells
T2 sequence (O75762 whole entry): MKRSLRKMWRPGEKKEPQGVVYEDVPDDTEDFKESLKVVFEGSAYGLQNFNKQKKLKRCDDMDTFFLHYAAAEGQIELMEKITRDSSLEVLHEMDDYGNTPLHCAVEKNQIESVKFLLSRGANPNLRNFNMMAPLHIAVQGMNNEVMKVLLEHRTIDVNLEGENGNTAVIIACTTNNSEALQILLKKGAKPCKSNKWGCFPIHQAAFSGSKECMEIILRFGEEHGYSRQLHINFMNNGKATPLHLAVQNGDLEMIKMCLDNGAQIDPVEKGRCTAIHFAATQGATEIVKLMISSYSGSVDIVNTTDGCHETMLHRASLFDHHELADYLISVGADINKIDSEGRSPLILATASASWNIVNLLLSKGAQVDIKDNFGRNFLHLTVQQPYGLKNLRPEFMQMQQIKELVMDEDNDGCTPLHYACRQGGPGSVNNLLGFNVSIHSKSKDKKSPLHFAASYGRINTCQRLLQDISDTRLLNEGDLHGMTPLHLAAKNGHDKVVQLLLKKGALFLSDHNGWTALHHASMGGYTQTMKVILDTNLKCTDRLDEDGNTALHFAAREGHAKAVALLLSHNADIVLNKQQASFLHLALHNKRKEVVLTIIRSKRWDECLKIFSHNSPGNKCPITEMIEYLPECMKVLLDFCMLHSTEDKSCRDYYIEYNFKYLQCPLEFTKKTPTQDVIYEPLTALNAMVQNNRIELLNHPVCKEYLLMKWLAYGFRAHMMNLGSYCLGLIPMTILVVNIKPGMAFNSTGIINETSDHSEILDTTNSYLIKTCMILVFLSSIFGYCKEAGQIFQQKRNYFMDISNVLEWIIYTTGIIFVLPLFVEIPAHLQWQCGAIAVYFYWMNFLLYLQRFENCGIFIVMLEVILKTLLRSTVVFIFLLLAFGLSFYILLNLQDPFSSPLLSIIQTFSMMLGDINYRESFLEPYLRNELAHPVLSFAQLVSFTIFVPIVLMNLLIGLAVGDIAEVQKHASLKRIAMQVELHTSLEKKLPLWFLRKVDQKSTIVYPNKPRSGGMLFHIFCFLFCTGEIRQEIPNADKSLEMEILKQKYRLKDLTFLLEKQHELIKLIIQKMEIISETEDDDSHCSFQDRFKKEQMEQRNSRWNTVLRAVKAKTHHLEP

[8] = target: T3, human TRPV1 (Homo sapiens, UniProt Q8NER1); assay: In vitro Ca2+ flux assay in human TRPV1 transfected HEK 293 cells; format: cell-based; conditions: read-out: TRPV1 EC50
T3 construct: DYK (FLAG) tag from vector pcDNA3.1+/C-(K)DYK (C); host or cells: FreeStyle 293-F cells (HEK 293), transient transfection
T3 sequence (Q8NER1 whole entry): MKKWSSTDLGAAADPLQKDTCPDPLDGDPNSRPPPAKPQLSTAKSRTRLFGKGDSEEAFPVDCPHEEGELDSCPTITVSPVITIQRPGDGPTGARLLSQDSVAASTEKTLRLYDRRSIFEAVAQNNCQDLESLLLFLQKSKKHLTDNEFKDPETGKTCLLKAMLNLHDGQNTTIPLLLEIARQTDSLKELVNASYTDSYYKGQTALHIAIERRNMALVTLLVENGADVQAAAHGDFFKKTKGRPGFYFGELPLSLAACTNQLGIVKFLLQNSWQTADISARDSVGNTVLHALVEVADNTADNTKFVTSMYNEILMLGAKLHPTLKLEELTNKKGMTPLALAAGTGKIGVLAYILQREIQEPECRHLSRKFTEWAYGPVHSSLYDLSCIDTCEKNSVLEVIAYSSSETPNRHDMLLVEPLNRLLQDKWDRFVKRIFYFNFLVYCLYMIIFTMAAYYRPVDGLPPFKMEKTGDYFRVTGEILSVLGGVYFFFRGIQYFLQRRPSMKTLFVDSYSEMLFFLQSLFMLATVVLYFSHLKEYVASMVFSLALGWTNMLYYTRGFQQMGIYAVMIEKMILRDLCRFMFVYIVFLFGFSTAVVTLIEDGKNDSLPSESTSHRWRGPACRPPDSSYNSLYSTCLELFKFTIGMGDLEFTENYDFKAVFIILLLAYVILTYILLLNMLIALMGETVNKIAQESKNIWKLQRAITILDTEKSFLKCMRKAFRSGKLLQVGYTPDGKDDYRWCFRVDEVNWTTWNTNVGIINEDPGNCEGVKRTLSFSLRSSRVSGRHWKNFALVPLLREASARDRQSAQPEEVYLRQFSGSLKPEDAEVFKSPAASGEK

[9] = tested on: OVCAR-8; assay: Human cancer cell growth inhibition assay (ATP assay), OVCAR-8; format: cell-based; conditions: Homo sapiens, OVCAR-8, 96 h; 4 days; Means±SEM from three independent experiments; read-out: OVCAR-8, IC50
[10] = tested on: MDA-MB-231; assay: Human cancer cell growth inhibition assay (ATP assay), MDA-MB-231; format: cell-based; conditions: Homo sapiens, MDA-MB-231, 96 h; 4 days; Means±SEM from three independent experiments; read-out: MDA-MB-231, IC50
[11] = Mouse liver microsome stability; format: in vitro ADME; conditions: liver microsomes, C57BL6 mouse liver microsome
[12] = SubQ 6 mg/kg
[13] = target: T4, TRPV1 (Mus musculus, UniProt Q704Y3); assay: Ca2+ imaging of primary mouse dorsal root ganglion (DRG) neurons, TRPV1 desensitization; format: cell-based; conditions: then capsaicin 0.5 μM
T4 construct: DRG was isolated from male and female mice expressing GCaMP6f in neurons; endogenous in cells; host or cells: dissociated primary DRG neurons from GCaMP6f-expressing mice
T4 sequence (Q704Y3 whole entry): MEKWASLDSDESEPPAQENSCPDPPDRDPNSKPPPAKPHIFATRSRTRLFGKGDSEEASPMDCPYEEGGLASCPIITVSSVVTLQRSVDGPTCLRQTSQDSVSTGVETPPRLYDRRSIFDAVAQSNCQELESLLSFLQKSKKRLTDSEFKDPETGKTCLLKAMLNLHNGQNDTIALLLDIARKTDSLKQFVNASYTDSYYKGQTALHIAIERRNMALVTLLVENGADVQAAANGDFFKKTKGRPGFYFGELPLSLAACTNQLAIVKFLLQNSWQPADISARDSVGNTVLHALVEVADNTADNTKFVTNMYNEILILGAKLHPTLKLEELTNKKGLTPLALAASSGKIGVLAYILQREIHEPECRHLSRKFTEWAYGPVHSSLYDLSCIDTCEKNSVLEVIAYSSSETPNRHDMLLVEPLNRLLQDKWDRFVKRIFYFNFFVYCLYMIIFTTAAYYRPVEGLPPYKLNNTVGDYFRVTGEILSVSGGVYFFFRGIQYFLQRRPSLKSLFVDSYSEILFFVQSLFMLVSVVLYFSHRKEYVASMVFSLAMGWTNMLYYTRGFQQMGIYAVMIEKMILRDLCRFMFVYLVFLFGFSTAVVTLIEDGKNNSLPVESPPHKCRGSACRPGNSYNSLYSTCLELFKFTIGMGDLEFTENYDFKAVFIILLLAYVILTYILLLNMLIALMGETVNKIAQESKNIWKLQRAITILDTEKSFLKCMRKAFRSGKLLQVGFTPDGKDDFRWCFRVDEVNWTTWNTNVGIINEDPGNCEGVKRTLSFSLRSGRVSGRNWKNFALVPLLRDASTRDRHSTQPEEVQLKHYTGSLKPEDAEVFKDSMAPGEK

[14] = Operant Pain Tolerance Assay; format: in vivo; conditions: intraplantar
Description: Model 3—The ability of YB-16 to increase pain tolerance was tested using a newly published Operant Pain Tolerance Assay (eNeuro 2020, 7, ENEURO.0210-19.2020). In the assay, mice were trained to seek a sucrose reward that was on a hot 42° C. plate (versus no reward on a neutral 30° C. plate). It was noticed that intraplantar YB-16 treated mice with paw inflammatory injury [induced by Complete Freund's adjuvant (CFA) 24 hrs prior to treatment] trended to spend 145% more time on the hot side of the assay but not necessarily additional time near the sucrose bottle compared to vehicle treated mice (FIG. 10B).

[15] = Means±SEM from three independent experiments
[16] = first treatment capsaicin 0.5 μM, YB-11 0.5 μM or YB-16 1.0 μM, paired t-test

| Compound | animal death and sedation in formalin test [1] | IC50 [4] [µM] | MPP [5] [mg/mL] | EC50 [6] [µM] | EC50 [7] [µM] | EC50 [8, 15] [µM] | IC50 [9] [µM] | IC50 [10] [µM] | also measured |
| --- | --- | --- | --- | --- | --- | --- | --- | --- | --- |
| COc1cc(CNC(=O)CCCC/C=C/C(C)C)ccc1N [YB-2] | No mice treated with YB-16, YB-11 or YB-2 died or experienced sedative reaction | 350 ± 25 | 0.233 | > 10 | > 10 | < 0.1 | 200 ± 22 | 342 ± 30 | effect in the second phase of the formalin test ([1]; 2 hr prior to formalin): significant analgesic effect in the second phase for male mice only; effect on formalin spontaneous pain-like behavior ([1]; 2 hr prior to formalin): did not reduce formalin behavior at any dose tested; λz [2]: 4.1 h⁻¹; inhibition of MDA-MB-231 cell invasion [3]: dose-dependently inhibited; EC50 ([8]; Table 3 comparison, YB-2 tested as a HCl salt): 0.082 µM; CLint scaled at 2 μM [11]: 1780 mL/min/kg |
| COCCOCCOCCC(=O)Oc1ccc(CC(=O)N/C=C/c2ccc(C(F)(F)F)cc2)cc1OC [YB-16] | No mice treated with YB-16, YB-11 or YB-2 died or experienced sedative reaction | > 100 | 0.302 | > 10 | > 10 | 0.93 | 16 | > 100 | decrease in the second phase of the formalin test ([1]; 2 hr prior to formalin): 54%; reduction of formalin first phase behavior ([1]; 2 hr prior to formalin): 60%; MPE (maximum possible effect) increase compared to vehicle [12]: 270%; TRPV1-sensitive neurons showing desensitization ([13]; first treatment 1.0 μM): 79%; area under the curve of the Ca2+ signal of the second (capsaicin) application [13, 16]: statistically significant reduction; also recorded: significantly reduced; max Ca2+ signal of the second (capsaicin) application [13, 16]: statistically significant reduction; also recorded: significantly reduced; sedation in operant pain tolerance assay [14]: inflammatory injury with no sedation; sensitivity to hot plate after inflammatory injury ([14]; paw inflammatory injury (CFA)): trended to reduce sensitivity to hot plate after inflammatory injury compared to vehicle; also recorded: trended to increase time in a 42 °C chamber; also recorded: Trend for reduced sensitivity to hot |
